Data published in US12319697B2, “Process for preparing imidazole derivatives” (Bayer Aktiengesellschaft, priority 2018, dated 2025).

What was measured:
[1] = log P[a] by reversed-phase HPLC (C18), LC-UV in the acidic range, EEC Directive 79/831 Annex V.A8; type: physicochemical; details: 0.9 ml/l formic acid in water and 1.0 ml/l formic acid in acetonitrile, gradient 10% to 95% acetonitrile; for chromatographic logP: reversed-phase HPLC column (C18)
Procedure: (§1) The log P values were determined according to EEC Directive 79/831 Annex V.A8 by HPLC (high-performance liquid chromatography) on a reversed-phase column (C18) using the following methods: The log P[a] value is determined by LC-UV measurement in the acidic range using 0.9 ml/1 formic acid in water and 1.0 ml/1 formic acid in acetonitrile as mobile phases (linear gradient from 10% acetonitrile to 95% acetonitrile). Calibration was carried out using a homologous series of straight-chain alkan-2-ones (having 3 to 16 carbon atoms) with known log P values. The values between successive alkanones are determined by linear regression.

[2] = log P[n] by reversed-phase HPLC (C18), LC-UV in the neutral range, EEC Directive 79/831 Annex V.A8; type: physicochemical; details: 79 mg/l ammonium carbonate in water and acetonitrile, gradient 10% to 95% acetonitrile; for chromatographic logP: reversed-phase HPLC column (C18)
Procedure: as §1, with “acetonitrile). The log P[n] value is determined by LC-UV measurement in the neutral range using 79 mg/l ammonium carbonate in water and acetonitrile as mobile phases (linear gradient from 10% acetonitrile to 95% acetonitrile).” for “acetonitrile).”

Row | chromatographic logP [1] | chromatographic logP [2] | log P[a] ([1]; listed as Comparative Example) | log P[n] ([2]; listed as Comparative Example) | Structure (SMILES)
1 | 4.51 | 4.34 | – | – | CCSc1c(-c2nc3cc(SC(F)(F)F)nnc3n2C)nc(-c2ccc(Cl)cc2)n1C
2 | 4.82 | 4.6 | – | – | CCSc1c(-c2nc3cc(C(F)(F)C(F)(F)F)nnc3n2C)nc(-c2ccc(Cl)cc2)n1C
3 | 3.5 | 3.4 | – | – | CCSc1c(-c2nc3cc(SC(F)(F)F)nnc3n2C)nc(C2CC2)n1C
4 | 3.85 | 3.75 | – | – | CCSc1c(-c2nc3cc(C(F)(F)C(F)(F)F)nnc3n2C)nc(C2CC2)n1C
5 | 5.14 | 4.92 | – | – | CCSc1c(-c2nc3cc(C(F)(F)C(F)(F)F)nnc3n2C)nc(-c2ccc(Cl)s2)n1C
6 | 5.25 | 4.66 | – | – | CCSc1c(-c2nc3cc(C(F)(F)C(F)(F)F)nnc3n2C)nc(-c2ccc(Cl)cn2)n1C
7 | 2.26 | 2.37 | – | – | CCSc1c(-c2nc3cc(C(F)(F)F)nnc3n2C)ncn1C [Example 1, 6-[5-(ethylsulfanyl)-1-methyl-1H-imidazol-4-yl]-7-methyl-3-(trifluoromethyl)-7H-imidazo[4,5-c]pyridazine]
8 | 4.23 | 4.08 | 4.35 | 4.07 | CCSc1c(-c2nc3cc(C(F)(F)F)nnc3n2C)nc(-c2ccc(Cl)cc2)n1C [Example 2, 6-[2-(4-chlorophenyl)-5-(ethylsulfanyl)-1-methyl-1H-imidazol-4-yl]-7-methyl-3-(trifluoromethyl)-7H-imidazo[4,5-c]pyridazine]
9 | 2.88 | 2.86 | – | – | CCSc1c(-c2nc3cc(C(F)(F)C(F)(F)F)nnc3n2C)ncn1C [Example 3, 6-[5-(ethylsulfanyl)-1-methyl-1H-imidazol-4-yl]-7-methyl-3-(pentafluoroethyl)-7H-imidazo[4,5-c]pyridazine]
10 | 2.2 | 2.21 | – | – | CCS(=O)(=O)c1c(-c2nc3cc(C(F)(F)C(F)(F)F)nnc3n2C)ncn1C [Example 4, 6-[5-(ethylsulfonyl)-1-methyl-1H-imidazol-4-yl]-7-methyl-3-(pentafluoroethyl)-7H-imidazo[4,5-c]pyridazine]
11 | 3.76 | – | – | – | CCSc1c(-c2nc3cc(C(F)(F)C(F)(F)F)nnc3n2C)nc(Br)n1C [Example 5, 6-[2-bromo-5-(ethylsulfanyl)-1-methyl-1H-imidazol-4-yl]-7-methyl-3-(pentafluoroethyl)-7H-imidazo[4,5-c]pyridazine]
12 | 2.7 | 2.71 | – | – | CCSc1c(-c2nc3cc(C(F)(F)C(F)(F)F)ncc3n2C)ncn1C [Example 6, 2-[5-(ethylsulfanyl)-1-methyl-1H-imidazol-4-yl]-3-methyl-6-(pentafluoroethyl)-3H-imidazo[4,5-c]pyridine]
13 | 2.92 | 3.23 | – | – | CCSc1c(-c2nc3cc(Br)cnc3n2C)nc(C2CC2)n1C [Example 7, 6-bromo-2-[2-cyclopropyl-5-(ethylsulfanyl)-1-methyl-1H-imidazol-4-yl]-3-methyl-3H-imidazo[4,5-b]pyridine]
14 | 1.61 | 1.91 | – | – | CCSc1c(I)ncn1C [Example 8 Step 1, 5-(ethylsulfanyl)-4-iodo-1-methyl-1H-imidazole]
15 | 2.77 | 2.68 | – | – | CCSc1c(I)nc(Br)n1C [Example 8 Step 2, 2-bromo-5-(ethylsulfanyl)-4-iodo-1-methyl-1H-imidazole]
16 | 1.04 | 1.1 | – | – | Cn1cnc2cc(C(F)(F)F)ncc21 [Example 8 Step 3, 3-methyl-6-(trifluoromethyl)-3H-imidazo[4,5-c]pyridine]
17 | 3.04 | 2.85 | – | – | CCSc1c(-c2nc3cc(C(F)(F)F)ncc3n2C)nc(Br)n1C [Example 8, 2-[2-bromo-5-(ethylsulfanyl)-1-methyl-1H-imidazol-4-yl]-3-methyl-6-(trifluoromethyl)-3H-imidazo[4,5-c]pyridine]
